From patent US11104661B1, “Inhibiting human integrin (α-4) (β-7)” (Morphic Therapeutic, Inc., priority 2019, dated 2021)
Like-named read-outs stand apart in the source and are kept apart here.

Molecular target: T1, α4β7 (Homo sapiens, UniProt P13612+P26010)
T1 construct: endogenous in cells; host or cells: RPMI 8866 cells
T1 sequence (P13612 34-1032): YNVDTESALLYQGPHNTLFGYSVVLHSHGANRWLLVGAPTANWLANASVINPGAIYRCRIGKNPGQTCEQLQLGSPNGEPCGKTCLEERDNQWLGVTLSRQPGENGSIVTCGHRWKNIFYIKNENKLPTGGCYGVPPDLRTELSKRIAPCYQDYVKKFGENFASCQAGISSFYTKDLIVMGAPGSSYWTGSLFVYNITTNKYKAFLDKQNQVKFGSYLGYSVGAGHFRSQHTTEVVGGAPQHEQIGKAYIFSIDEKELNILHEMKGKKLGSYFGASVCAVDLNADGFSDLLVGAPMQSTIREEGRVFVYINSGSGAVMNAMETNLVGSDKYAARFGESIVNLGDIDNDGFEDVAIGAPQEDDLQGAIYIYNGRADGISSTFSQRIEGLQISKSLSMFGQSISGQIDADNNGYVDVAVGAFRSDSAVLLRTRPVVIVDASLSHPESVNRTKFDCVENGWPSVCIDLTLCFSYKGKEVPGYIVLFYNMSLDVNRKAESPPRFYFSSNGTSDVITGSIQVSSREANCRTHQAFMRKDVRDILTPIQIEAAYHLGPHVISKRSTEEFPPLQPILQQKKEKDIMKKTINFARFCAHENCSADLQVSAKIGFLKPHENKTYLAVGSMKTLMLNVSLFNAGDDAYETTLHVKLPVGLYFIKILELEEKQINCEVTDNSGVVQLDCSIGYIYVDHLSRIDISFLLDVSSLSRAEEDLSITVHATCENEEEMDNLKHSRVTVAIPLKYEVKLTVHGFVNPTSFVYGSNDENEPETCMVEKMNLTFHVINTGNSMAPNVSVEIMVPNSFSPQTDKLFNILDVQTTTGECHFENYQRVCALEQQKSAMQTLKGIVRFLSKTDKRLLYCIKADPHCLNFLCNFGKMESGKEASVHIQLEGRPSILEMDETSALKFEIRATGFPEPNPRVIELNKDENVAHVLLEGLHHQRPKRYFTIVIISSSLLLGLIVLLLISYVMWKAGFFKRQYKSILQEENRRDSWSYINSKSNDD
T1 sequence (P26010 20-798): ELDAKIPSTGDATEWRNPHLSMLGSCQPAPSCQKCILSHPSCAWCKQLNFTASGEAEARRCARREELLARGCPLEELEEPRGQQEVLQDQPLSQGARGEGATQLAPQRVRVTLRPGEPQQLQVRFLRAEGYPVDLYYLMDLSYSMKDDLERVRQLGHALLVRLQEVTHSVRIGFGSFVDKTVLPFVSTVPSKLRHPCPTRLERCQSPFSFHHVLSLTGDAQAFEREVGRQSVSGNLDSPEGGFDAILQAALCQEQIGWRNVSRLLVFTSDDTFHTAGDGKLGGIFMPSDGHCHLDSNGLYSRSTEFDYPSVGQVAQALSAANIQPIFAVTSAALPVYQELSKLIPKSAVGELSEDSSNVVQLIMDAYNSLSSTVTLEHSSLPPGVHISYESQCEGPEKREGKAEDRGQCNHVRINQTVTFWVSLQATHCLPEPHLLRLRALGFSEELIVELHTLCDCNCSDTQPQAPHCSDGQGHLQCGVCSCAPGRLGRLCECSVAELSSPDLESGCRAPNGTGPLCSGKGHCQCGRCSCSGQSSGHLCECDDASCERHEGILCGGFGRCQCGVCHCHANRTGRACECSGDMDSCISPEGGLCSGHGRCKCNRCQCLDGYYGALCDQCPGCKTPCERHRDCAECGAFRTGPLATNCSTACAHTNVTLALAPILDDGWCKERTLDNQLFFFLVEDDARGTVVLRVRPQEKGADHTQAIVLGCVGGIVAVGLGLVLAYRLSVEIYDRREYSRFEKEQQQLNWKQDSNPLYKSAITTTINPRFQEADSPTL
Test: Cell-based MAdCAM-1 ligand binding assay (LBA) on RPMI 8866 cells (Example 6)
Settings: MAdCAM-1-Fc Dylight 650, 3 mM manganese chloride, flow cytometry
Text: Compounds of Formula (I) were further evaluated using a Ligand binding assay (LBA) to examine compound potency of free ligand binding to receptors expressed on cells. The MAdCAM ligand binding assay uses flow cytometry to measure the binding of fluorescently-labeled MAdCAM-1-Fc to RPMI 8866 cells in the presence of Mn++. This assay assesses the binding of compounds to native full-length receptors on the cell surface. […] Ligand binding assays (LBA) are used to examine compound potency and selectivity of free ligand binding to receptors expressed on cells.
Three in vitro assays were used to examine the α4β7 mechanistic process used by cells: 1) ligand:receptor affinity, 2) the avidity of those interactions on a cell's surface, and 3) how those interactions fare under an imposing force. In Example 5, a Fluorescence Polarization (FP) assay is used to measure compound activity through binding competition with the fluorescein-labeled peptide. In Example 6, the potency of compounds against α4β7 is measured in the cell-based ligand binding assay (LBA), using RPMI 8866 cells incubated with the compound samples in competition with soluble MAdCAM-1 ligand. In Example 7, activity of compounds is evaluated in a cell adhesion assay that mechanistically tests what occurs in vivo when trafficking cells utilize α4β7 to adhere to MAdCAM-1 expressing HEVs of the gut during the extravasation process. In the cell adhesion assay of Example 7, a MAdCAMI1-(Fc) is coated on plastic, and α4β7 expressing cells (RPMI-8866) are allowed to adhere to the coated surface in the presence of the test compounds. Next, the force of washing with buffer is applied to cells thereby testing the strength of that adhesion. Unattached cells are removed and the remaining adherent cells are quantified.
5 ul of 33 nM MAdCAM-1-Fc fluorescently labeled with Dylight 650 in 50 mM HEPES pH 7.3, 150 mM sodium chloride, and 1% bovine serum albumin was added to the cells. The samples were incubated for 45 minutes at room temperature, fixed with 0.8% formaldehyde for 30 minutes at room temperature, and washed with 50 mM Tris pH 7.5, 150 mM NaCl, 1 mM EDTA, and 1% bovine serum albumin. Fluorescence intensity for each cell was measured via flow cytometry. Dead cells were excluded from further analysis based on staining with the 780 fixable viability dye. Median fluorescence intensity for Dylight 650 was determined for each sample and concentration-response curves were analyzed for IC50 values using 4-parameter non-linear regression analysis.

[1] = Table 4 comparative compounds, read-out: LB Assay (Example 6)
[2] = Table 3, read-out: LB Assay (Example 6)

With `Cc1cccc(C)c1-c1cccc([C@H](CC(=O)O)NC(=O)[C@H](CC(C)C)n2cc(CCN(C)C)ccc2=O)c1` the IC50 [1] was less than 10 nM.

`Cc1cccc(C)c1-c1cccc([C@H](CC(=O)O)NC(=O)[C@H](CC(C)C)n2ccc(CCN(C)C)cc2=O)c1` showed an IC50 [1] of less than 10 nM.

`Cc1cccc(C)c1-c1cccc([C@H](CC(=O)O)NC(=O)[C@H](CC(C)C)n2cccc(CCN(C)C)c2=O)c1` showed an IC50 [1] of 10 to 500 nM.

`Cc1cccc(C)c1-c1cccc([C@H](CC(=O)O)NC(=O)[C@H](CC(C)C)n2cc(CN3CC[C@@H](F)C3)ccc2=O)c1` gave an IC50 [1] of less than 10 nM.

With `Cc1cccc(C)c1-c1cncc([C@H](CC(=O)O)NC(=O)[C@H](CC(C)C)n2ccc(C(F)(F)F)cc2=O)c1` the IC50 [1] was less than 10 nM.

With `Cc1ccn([C@@H](CC(C)C)C(=O)N[C@@H](CC(=O)O)c2cncc(-c3c(C)cccc3C)c2)c(=O)c1` the IC50 [1] was less than 10 nM.

`Cc1cccc(C)c1-c1cncc([C@H](CC(=O)O)NC(=O)[C@H](CC(C)C)n2cc(CN3CC(F)C3)ccc2=O)c1` gave an IC50 [1] of less than 10 nM.

Work on `Cc1cccc(C)c1-c1cncc([C@H](CC(=O)O)NC(=O)[C@H](CC(C)C)N2CC[C@@H](C(F)(F)F)CC2=O)c1` yielded an IC50 [1] of 10 to 500 nM.

With `CC(C)C[C@@H](C(=O)N[C@@H](CC(=O)O)c1ccc(-c2ccc(F)cc2)cc1)n1cc(CCN(C)C)c(C(F)(F)F)cc1=O` the IC50 [1] was 10 to 500 nM.

Molecule `CC(C)C[C@@H](C(=O)N[C@@H](CC(=O)O)c1ccc(-c2ccc(F)cc2)cc1)n1cc(CCN2CC(F)C2)cc(F)c1=O` has an IC50 [1] of 10 to 500 nM.

`CC(C)C[C@@H](C(=O)N[C@@H](CC(=O)O)c1ccc(-c2ccccc2)cc1)n1cc(CCN2CC(F)C2)cc(F)c1=O` gave an IC50 [1] of 10 to 500 nM.

`Cc1ccccc1-c1cccc([C@H](CC(=O)O)NC(=O)[C@H](CC(C)C)n2cccc(C)c2=O)c1` gave an IC50 [1] of 10 to 500 nM.

Work on `CC(C)C[C@@H](C(=O)N[C@@H](CC(=O)O)c1ccc(-c2ccccc2)cc1)n1cc(CCN(C)C)c(C(F)(F)F)cc1=O` yielded an IC50 [1] of 10 to 500 nM.

Molecule `Cc1ccc([C@@H](C(=O)N[C@@H](CC(=O)O)c2cncc(-c3c(C)cccc3C)c2)N2CC(C)CCC2=O)cc1` (stereo partly shown) has an IC50 [1] of 10 to 500 nM.

Work on `COC[C@@H](C(=O)N[C@@H](CC(=O)O)c1cccc(-c2c(C)cccc2C)c1)n1ccc(C)cc1=O` yielded an IC50 [1] of 10 to 500 nM.

Work on `Cc1cc(-c2c(C)ccc(F)c2C)cc([C@H](CC(=O)O)NC(=O)C(CC(C)C)n2cc(CCN3CCC3)c(C(F)(F)F)cc2=O)c1F` (single isomer, unassigned) [AF-P2] yielded an IC50 [2] of less than 10 nM.

With `COc1ccc(C)c(-c2cc(C)c(F)c([C@H](CC(=O)O)NC(=O)C(CC(C)C)n3cc(CCN4CCC4)c(C(F)(F)F)cc3=O)c2)c1C` (single isomer, unassigned) [AG-P2] the IC50 [2] was less than 10 nM.

Work on `Cc1cc(-c2c(C)cccc2C)cc([C@H](CC(=O)O)NC(=O)C(CC(C)C)n2cc(CCN3CC[C@@H](F)C3)cc(F)c2=O)c1F` (single isomer, unassigned) [AU-P2] yielded an IC50 [2] of less than 10 nM.

`Cc1cccc(C)c1-c1cccc([C@H](CC(=O)O)NC(=O)[C@H](CC(C)C)n2cc(CN3CC(F)C3)ccc2=O)c1` [drawing 572] gave an IC50 [1] of less than 10 nM.

Work on `Cc1cccc(C)c1-c1cccc([C@H](CC(=O)O)NC(=O)[C@H](CC(C)C)n2cc(CN3CC(F)C3)ccc2=O)c1` [drawing 577] yielded an IC50 [1] of less than 10 nM.

With `Cc1cccc(C)c1-c1cccc([C@H](CC(=O)O)NC(=O)[C@H](CC(C)C)n2cc(CN3CC(F)C3)ccc2=O)c1` [drawing 585] the IC50 [1] was less than 10 nM.

Work on `Cc1cccc(C)c1-c1cccc([C@H](CC(=O)O)NC(=O)[C@H](CC(C)C)n2cc(CN3CC(F)C3)ccc2=O)c1` [drawing 589] yielded an IC50 [1] of less than 10 nM.

Molecule `Cc1cccc(C)c1-c1cccc([C@H](CC(=O)O)NC(=O)[C@H](CC(C)C)n2cc(CN3CC(F)C3)ccc2=O)c1` [drawing 594] has an IC50 [1] of less than 10 nM.

Work on `Cc1cccc(C)c1-c1cccc([C@H](CC(=O)O)NC(=O)[C@H](CC(C)C)n2cc(CN3CC(F)C3)ccc2=O)c1` [drawing 599] yielded an IC50 [1] of less than 10 nM.

`Cc1cccc(C)c1-c1cccc([C@H](CC(=O)O)NC(=O)[C@H](CC(C)C)n2cc(CN3CC(F)C3)ccc2=O)c1` [drawing 604] was tested, and the IC50 [1] was less than 10 nM.
